Data set [1] is described as follows: Inhibition of HCMV recombinant DNA polymerase expressed in baculovirus infected SF9 cells after 12 mins by scintillation proximity assay. On the set-up: species or system Human betaherpesvirus 5.
Data set [2] in a line: Aqueous solubility of the compound. The class given is physicochemical.
The subject of the next data set is Human betaherpesvirus 5. Nature of the data set: Antiviral activity against Human cytomegalovirus infected in HFF cells by plaque reduction assay. The following applies: Human betaherpesvirus 5, HFF. Format: functional, organism-based. (In general: Plaque reduction counts the foci of infection that form in a cell layer.)
The nature of data set [3]: Cytotoxicity against HFF cells after 3 days by […] dye uptake assay. The class given is cell-based. To be noted: human.
Data set [4] can be described thus: Inhibition of Varicella zoster virus recombinant DNA polymerase expressed in baculovirus infected SF9 cells after 12 mins by scintillation proximity assay. Also noted: species or system Human alphaherpesvirus 3. A general note: SPA uses beads or plates that emit light when radiolabelled molecules are held near them.
Data set [5] has as its target T1, DNA polymerase alpha catalytic subunit (Homo sapiens, UniProt P09884).
T1 sequence (P09884 whole entry): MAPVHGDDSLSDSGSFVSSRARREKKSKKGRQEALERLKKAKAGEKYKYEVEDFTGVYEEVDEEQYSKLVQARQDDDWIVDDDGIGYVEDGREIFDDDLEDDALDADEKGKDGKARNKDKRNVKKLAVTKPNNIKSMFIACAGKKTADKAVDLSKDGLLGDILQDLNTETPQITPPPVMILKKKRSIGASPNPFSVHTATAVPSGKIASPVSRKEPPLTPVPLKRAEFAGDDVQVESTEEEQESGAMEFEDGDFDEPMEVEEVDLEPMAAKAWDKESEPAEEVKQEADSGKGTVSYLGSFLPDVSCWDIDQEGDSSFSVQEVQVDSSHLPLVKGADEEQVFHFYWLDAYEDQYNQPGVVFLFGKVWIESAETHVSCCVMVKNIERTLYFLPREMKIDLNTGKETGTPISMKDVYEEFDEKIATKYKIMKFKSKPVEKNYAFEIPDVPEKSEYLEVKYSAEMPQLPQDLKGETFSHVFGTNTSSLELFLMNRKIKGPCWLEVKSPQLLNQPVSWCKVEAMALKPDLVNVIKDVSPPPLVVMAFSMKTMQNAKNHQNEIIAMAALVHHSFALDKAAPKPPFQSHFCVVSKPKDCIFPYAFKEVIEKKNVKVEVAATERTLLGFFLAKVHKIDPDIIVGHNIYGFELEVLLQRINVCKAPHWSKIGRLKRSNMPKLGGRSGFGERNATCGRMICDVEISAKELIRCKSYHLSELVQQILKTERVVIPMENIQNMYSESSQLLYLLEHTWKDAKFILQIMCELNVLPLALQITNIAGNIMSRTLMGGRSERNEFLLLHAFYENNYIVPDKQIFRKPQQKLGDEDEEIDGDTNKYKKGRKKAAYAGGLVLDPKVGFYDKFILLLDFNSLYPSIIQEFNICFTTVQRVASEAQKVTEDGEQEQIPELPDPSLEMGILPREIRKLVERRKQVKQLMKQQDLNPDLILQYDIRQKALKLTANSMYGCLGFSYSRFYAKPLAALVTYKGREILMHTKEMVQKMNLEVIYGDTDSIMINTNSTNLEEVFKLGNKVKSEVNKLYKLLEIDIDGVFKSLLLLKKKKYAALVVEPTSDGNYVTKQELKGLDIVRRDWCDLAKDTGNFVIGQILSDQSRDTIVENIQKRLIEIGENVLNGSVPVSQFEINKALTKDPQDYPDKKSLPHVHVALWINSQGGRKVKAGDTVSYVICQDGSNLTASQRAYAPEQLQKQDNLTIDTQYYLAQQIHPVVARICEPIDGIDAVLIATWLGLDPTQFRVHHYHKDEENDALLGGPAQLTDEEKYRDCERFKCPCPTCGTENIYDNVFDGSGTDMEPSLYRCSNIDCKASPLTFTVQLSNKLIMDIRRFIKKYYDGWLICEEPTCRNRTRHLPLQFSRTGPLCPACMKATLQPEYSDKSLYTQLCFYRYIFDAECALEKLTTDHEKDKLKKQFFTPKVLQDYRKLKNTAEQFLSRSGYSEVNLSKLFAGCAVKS
Nature of the data set: Inhibition of human recombinant DNA polymerase alpha expressed in baculovirus infected SF9 cells after 12 mins by scintillation proximity assay.

The subject of a further data set is Human alphaherpesvirus 3. Nature of the data set: Antiviral activity against Varicella zoster virus infected in HFF cells by plaque reduction assay. To be noted: Human alphaherpesvirus 3, HFF. Format: functional, organism-based.

≈ marks a conversion by molar mass, not a printed value.

On to `O=C(NCc1ccc(Cl)cc1)c1cn2c3c(cc(CN4CCOCC4)cc3c1=O)N(CCCN1CCOCC1)C(=O)C2`, for which, in data set [1], the half-inhibitory concentration (IC50) (commonly the midpoint of a concentration-inhibition curve) was found to be 4410 nM.
As to `CN(Cc1cc2c3c(c1)c(=O)c(C(=O)NCc1ccc(Cl)cc1)cn3CC(=O)N2C)C[C@@H](O)c1cc2ccccc2o1`, the solubility – broadly, how much of the substance goes into solution per volume – in data set [2] is 0.94 µg/mL (≈ 1.61 µM). The IC50 in data set [1] is 4 nM; in the data set on Human betaherpesvirus 5 it was 1 nM; in data set [4], 29 nM; in data set [5], greater than 5000 nM; with Human alphaherpesvirus 3 it was 4 nM. Also, the CC50 (in general, the concentration giving 50% cytotoxicity) at 72 h in data set [3] was greater than 15000 nM.
Consider `CN(Cc1cc2c3c(c1)c(=O)c(C(=O)NCc1ccc(Cl)cc1)cn3CC(=O)N2C)C[C@H](O)c1cc2ccccc2o1`, for which the concentration for half-maximal inhibition (IC50) in data set [1] came out at 180 nM; in the data set with Human betaherpesvirus 5, 90 nM. The CC50 at 72 h in data set [3] is greater than 15000 nM.
Regarding `CN(Cc1cc2cc(CCO)n3cc(C(=O)NCc4ccc(Cl)cc4)c(=O)c(c1)c23)C[C@@H](O)c1cnccn1`, the concentration in solution in data set [2] (solubility) came to 17 µg/mL (≈ 31.1 µM). The IC50 in data set [1] stood at 14 nM; in the data set with Human betaherpesvirus 5 it was 10 nM.
With `CN(Cc1cc2c3c(c1)c(=O)c(C(=O)NCc1ccc(Cl)cc1)cn3CC(=O)N2C)C[C@@H](O)c1ccsc1`, the IC50 in data set [1] turned out to be 190 nM; with Human betaherpesvirus 5, 100 nM. Besides, the CC50 at 72 h in data set [3] was greater than 15000 nM.
For `CN(Cc1cc2c3c(c1)c(=O)c(C(=O)NCc1ccc(Cl)cc1)cn3CC(=O)N2C)C[C@@H](O)c1ccccc1`, the 50% inhibitory concentration (IC50) in data set [1] was 130 nM; in the data set with Human betaherpesvirus 5, 100 nM. This compound also showed a CC50 at 72 h in data set [3] greater than 15000 nM.
Take `CN(Cc1cc2c3c(c1)c(=O)c(C(=O)NCc1ccc(Cl)cc1)cn3CC(=O)N2C)C[C@H](O)c1ccccc1`: the 50% inhibitory concentration (IC50) in data set [1] is 9160 nM.
Regarding `CN(Cc1cc2c3c(c1)c(=O)c(C(=O)NCc1ccc(Cl)cc1)cn3CC(=O)N2C)C[C@@H](O)c1ccccn1`, the 50% inhibitory concentration (IC50) is 300 nM in data set [1] and 20 nM in the data set on Human betaherpesvirus 5. For the same compound, the cytotoxic concentration (CC50) at 72 h in data set [3] was greater than 15000 nM.
For `CN(Cc1cc2c3c(c1)c(=O)c(C(=O)NCc1ccc(Cl)cc1)cn3CC(=O)N2C)C[C@H](O)c1ccccn1`, the IC50 in data set [1] is 5250 nM.
In the case of `CN(Cc1cc2c3c(c1)c(=O)c(C(=O)NCc1ccc(Cl)cc1)cn3CC(=O)N2C)C[C@@H](O)c1cccnc1`, the IC50 in data set [1] was 150 nM; with Human betaherpesvirus 5, 10 nM. The cytotoxic concentration (CC50) at 72 h in data set [3] was greater than 15000 nM.
With `CN(Cc1cc2c3c(c1)c(=O)c(C(=O)NCc1ccc(Cl)cc1)cn3CC(=O)N2C)C[C@H](O)c1cccnc1`, the IC50 in data set [1] amounted to 4550 nM.
Regarding `CN(Cc1cc2c3c(c1)c(=O)c(C(=O)NCc1ccc(Cl)cc1)cn3CC(=O)N2C)C[C@@H](O)c1ccco1`, the figures for the IC50 (in data set [1]; in the data set on Human betaherpesvirus 5) were 110 nM and 10 nM, respectively. In data set [3], this compound gave a CC50 at 72 h greater than 15000 nM.
As for `CN(Cc1cc2c3c(c1)c(=O)c(C(=O)NCc1ccc(Cl)cc1)cn3CC(=O)N2C)C[C@H](O)c1ccco1`, the IC50 in data set [1] was 4930 nM.
On to `CN(Cc1cc2c3c(c1)c(=O)c(C(=O)NCc1ccc(Cl)cc1)cn3CC(=O)N2C)C[C@H](O)c1ccsc1`, for which the IC50 in data set [1] was found to be 5720 nM.
For the compound `CN(Cc1cc2c3c(c1)c(=O)c(C(=O)NCc1ccc(Cl)cc1)cn3CC(=O)N2C)C[C@@H](O)c1nccs1`, the IC50 came out at 490 nM in data set [1] and 100 nM in the data set on Human betaherpesvirus 5.
Regarding `CN(Cc1cc2c3c(c1)c(=O)c(C(=O)NCc1ccc(Cl)cc1)cn3CC(=O)N2C)C[C@@H](O)c1cnccn1`, the half-maximal inhibitory concentration (IC50) in data set [1] amounted to 260 nM; with Human betaherpesvirus 5, 200 nM.
For `CN(Cc1cc2c3c(c1)c(=O)c(C(=O)NCc1ccc(Cl)cc1)cn3CC(=O)N2C)C[C@H](O)c1cnccn1`, the 50% inhibitory concentration (IC50) in data set [1] was determined as 7700 nM.
Regarding `O=C(NCc1ccc(Cl)cc1)c1cn2c3c(cc(CN4CCOCC4)cc3c1=O)N(CCCO)C(=O)C2`, the IC50 in data set [1] worked out at 1840 nM.
For the compound `CN1C(=O)Cn2cc(C(=O)NCc3ccc(Cl)cc3)c(=O)c3cc(CN4CCOCC4)cc1c32`, the concentration in solution in data set [2] (solubility) came to 8.6 µg/mL (≈ 17.9 µM). Also, the IC50 was 620 nM in data set [1]; 100 nM with Human betaherpesvirus 5; 180 nM in data set [4]; greater than 5000 nM in data set [5]; 20 nM in the data set on Human alphaherpesvirus 3.
Consider `CCN1C(=O)Cn2cc(C(=O)NCc3ccc(Cl)cc3)c(=O)c3cc(CN4CCOCC4)cc1c32`, for which the half-inhibitory concentration (IC50) in data set [1] is 1280 nM.
In the case of `O=C(NCc1ccc(Cl)cc1)c1cn2c3c(cc(CN4CCOCC4)cc3c1=O)N(CCO)C(=O)C2`, the IC50 in data set [1] was 830 nM; with Human betaherpesvirus 5 it was 700 nM.
As for `CN(Cc1cc2c(=O)c(C(=O)NCc3ccc(Cl)cc3)cn(C)c2s1)C[C@@H](O)c1ccco1`, the concentration in solution in data set [2] (solubility) came to 0.19 µg/mL (≈ 0.391 µM). Further, the figures for the half-maximal inhibitory concentration (IC50) (in data set [1]; in the data set with Human betaherpesvirus 5) were 35 nM and 7 nM, respectively.
Turning to `CN(Cc1cc2c3c(c1)c(=O)c(C(=O)NCc1ccc(Cl)cc1)cn3CC(=O)N2C)C[C@H](O)c1nccs1`, the half-inhibitory concentration (IC50) in data set [1] worked out at 6200 nM.
With `Cn1cc(C(=O)NCc2ccc(Cl)cc2)c(=O)c2cc(CN3CCOCC3)ccc21`, the half-inhibitory concentration (IC50) was 690 nM in data set [1] and 300 nM in the data set on Human betaherpesvirus 5.
For the compound `Cn1cc(C(=O)NCc2ccc(Cl)cc2)c(=O)c2cc(CCCO)sc21`, the 50% inhibitory concentration (IC50) in data set [1] is 400 nM; with Human betaherpesvirus 5, 600 nM.
The matching figures for `CN(Cc1cc2c(=O)c(C(=O)NCc3ccc(Cl)cc3)cn(C)c2o1)C[C@@H](O)c1ccco1`: 76 nM and 26 nM.
In the case of `CN(Cc1cc2c3c(c1)c(=O)c(C(=O)NCc1ccc(Cl)cc1)cn3CC(=O)N2C)CC(O)c1ccc2ccccc2n1` (racemic), the IC50 in data set [1] was found to be 42 nM. Moreover, in data set [3], the CC50 at 72 h was greater than 15000 nM.
`CN(Cc1cc2c3c(c1)c(=O)c(C(=O)NCc1ccc(Cl)cc1)cn3CC(=O)N2C)CC(O)c1csc2ccccc12` (racemic): the figures for the concentration for half-maximal inhibition (IC50) (in data set [1]; with Human betaherpesvirus 5) were 97 nM and 100 nM, respectively. The compound further returned a CC50 at 72 h in data set [3] greater than 15000 nM.
As for `CN(Cc1cc2c3c(c1)c(=O)c(C(=O)NCc1ccc(Cl)cc1)cn3CC(=O)N2C)CC(O)c1cc2ccccc2o1` (racemic), in data set [1], the IC50 was determined as 8 nM. This compound showed a CC50 at 72 h in data set [3] greater than 15000 nM.
For the compound `Nc1nc2c(ncn2COCCO)c(=O)[nH]1` [ACYCLOVIR], the IC50 with Human betaherpesvirus 5 worked out at 20000 nM.

For the origin of these results see ChEMBL document CHEMBL1155400, “The design and development of 2-aryl-2-hydroxy ethylamine substituted 1H,7H-pyrido[1,2,3-de]quinoxaline-6-carboxamides as inhibitors of human cytomegalovirus polymerase” (Bioorg Med Chem Lett, 2010).
